Measured values from patent US11850266B2, “Cardiomyocytes and compositions and methods for producing the same” (President and Fellows of Harvard College, priority 2019, dated 2023).

Legend:
Assay type in all cases: cell-based, human
[1] = tested on: iPSC-derived cardiomyocytes; test: Flow cytometry (TNNT2+ purity, MFI of TNNT2 and Kir2.1) and cell counts
Procedure: (§1) To prepare for differentiation, iPSCs were plated at a density between 20,000 to 80,000 cells (depending on the cell line) per well of a 12-well plate at four days prior to onset of differentiation. Cells were differentiated according to the protocol previously described by Lian et al. with some modifications (FIG. 1A) (1). Basal media was changed from StemFlex to RPMI/B27 on day 0 of differentiation. The GSK3 inhibitor, CHIR99021 (6 μM), was added for 48 hours from day 0 to day 2 of differentiation when cells were approximately 70-80% confluent. The Wnt antagonist IWP4 (5 μM) was added from days 2 to 4 of differentiation. Insulin (10 μg/ml) was added to the media starting on day 7 of differentiation, and media was changed every 2-3 days. In general, higher purity (TNNT2+) cardiomyocytes were observed when beating initiated prior to day 10 of differentiation, therefore only batches with onset of beating between days 7-10 of differentiation were included in this study. Beating cardiomyocytes were treated with Torin1 (200 nM, unless otherwise noted) or vehicle (0.02% dimethylsulfoxide (DMSO)) beginning at ˜2 days after onset of beating for 7 days (media changed with fresh Torin1 or DMSO every 2-3 days), unless otherwise noted. After Torin1 treatment, media was switched back to RPMI/B27/insulin and maintained with media change every 2-3 days until endpoint assay. In a few assays, fatty acids were added in the form of chemically defined lipids (Gibco) diluted 1:1000 simultaneous with Torin1 treatment. In some other assays, fetal bovine serum (10% FBS) was added to cells after completion of Torin treatment for 2-4 days.
Cells were dissociated and 5×10^5 to 1×10^6 cells were used per condition. For cell cycle analysis, 5×10^5 cells per condition were fixed in 70% cold ethanol for at least 2 hours to overnight at −20 degrees C. Cells were stained first with AlexaFluor 647-TNNT2 in Permeabilization Buffer (Thermo) then with Hoechst 33342 (2 μg/ml) and pyronin Y (4 μg/ml) for 20 minutes to distinguish between cells in G0, G1, and S-G2-M phases. For other stains, cells were fixed in eBioscience Intracellular Fixation buffer for 30 minutes followed washing twice in eBioscience Permeabilization Buffer and stained with the appropriate primary antibody (Table 2) in eBioscience FACS Staining buffer for 30-60 minutes. If a secondary antibody was used, cells were incubated with the appropriate secondary antibody (Table 2) for 30-60 minutes. The geometric mean fluorescence intensity (MFI) was quantified for TNNT2 and Kir2.1 antibodies. Data were acquired via a BD LSRII instrument and analyzed using FlowJo software.

[2] = tested on: iPSC-derived cardiomyocytes; test: Western analysis of protein expression in iPSC-derived cardiomyocytes
Procedure: as §1
Cells were lysed with lysis buffer (1% Triton X, 0.35% Na-deoxycholate, 1 mM EDTA, 1% protease inhibitor cocktail (Sigma), 1% phosphatase inhibitor cocktail 2 (Sigma), 1% phosphatase inhibitor cocktail 3 (Sigma), 1 mM phenylmethylsulfonyl fluoride (PMSF)) and total protein was measured with the Pierce BCA Protein Assay Kit. Samples with equal total protein quantities (prepared in Laemmli Sample Buffer (Bio-Rad)) were loaded into a Mini-Protean TGX Precast Gel (Bio-Rad) and electrophoresed for 1 hour at 100 V before transfer to a PVDF membrane using the Trans-Blot Turbo Transfer System (Bio-Rad). The Precision Plus Protein Dual Color Standards molecular weight ladder was used to estimate molecular weight of detected bands (Bio-Rad). Membranes were blocked with 5% milk or bovine serum albumin then incubated with the primary antibody (Table 2) overnight at 4 degrees C. followed by incubation with the horseradish peroxidase-conjugated secondary antibody (Table 2) for 1 hour at room temperature. The Amersham ECL Western Blotting Detection kit was used to detect the protein signal by chemiluminescence, and band densities were quantified using ImageJ software (NIH).

[3] = tested on: BJRiPS-derived cardiomyocytes; test: Example 3 preliminary qPCR of maturation genes in BJRiPS-derived cardiomyocytes
Procedure: The BJRiPS cell line was used to generate preliminary data. BJRiPS cells were differentiated into cardiomyocytes according to previously published protocols (6). After the onset of beating (around day 10), cardiomyocytes were treated with vehicle (DMSO) or different concentrations of rapamycin, Torin1, or Torin2 for different time periods. Beating rate was counted manually. Some cells were harvested after 5-7 days of treatment for flow cytometry analysis. Other cells were harvested after 7 days of treatment for qPCR.

[4] = Torin1 0-200 nM 4 days prior to harvest on day 22, BJRiPS, FIG. 11
[5] = Torin1 10, 50, 200 nM, days 11-18, FIG. 32

For `CCC(=O)N1CCN(c2ccc(-n3c(=O)ccc4cnc5ccc(-c6cnc7ccccc7c6)cc5c43)cc2C(F)(F)F)CC1` [Torin1], the “Torin1-induced increase in TNNT2 MFI after 10% FBS” value ([1]; 10% FBS 2 days after completion of Torin1, UCSD-CMs, FIG. 2I) was “reversed”, the “TNNT2 MFI with shorter (5 days) or later (starting 10 days after initiation of beating) treatment” value ([1]; FIGS. 10, 11) was “beneficial effects on TNNT2 MFI” and the “MFI of extracellular Kir2.1 by flow cytometry” value ([1]; Torin1 7 days, BJRiPS, FIG. 4B) was “significantly increased”. For the same molecule, the “TNNT2 MFI by flow cytometry” value ([1]; Torin1 7 days, Gibco iPS-CMs, FIG. 2C) was “dose-dependent increase”, the “absolute numbers of cells per well” value ([1]; Torin1 from day 9, 12 well plate, BJRiPS-CMs, FIG. 1C) was “non-significant trend toward decreased absolute numbers of cells per well” and the “purity of TNNT2+ cells” value ([1]; non-significant trend, Gibco iPS-CMs, FIG. 1D) was “increased purity of TNNT2+ cells”. The “TNNT2 protein by mean fluorescence intensity (flow cytometry)” value ([1]; three cell lines (BJRiPS, GCaMP, Gibco), FIG. 18E) was “significant increase in protein expression of TNNT2”, the TNNI1 protein levels ([2]; FIG. 2B, RNA levels not increased) was “increase in TNNI1 protein levels” and the GATA4 protein expression ([2]; FIG. 5A) was “trend toward increased protein expression”. The “expression of fatty acid receptor CD36” value ([2]; FIG. 13C, BJRiPS-CM) was “trend toward increased expression”, the p21 protein expression ([2]; Torin1 0, 10, 50, 200 nM 7 days, FIG. 5A) was “dose-dependent decrease” and the “p53 protein (total and phosphorylated)” value ([2]; Torin1 0, 10, 50, 200 nM 7 days, Gibco iPS-CM, FIG. 5A) was “dose-dependent increase”. For the same molecule, the “TNNI3 protein, late treatment” value [2, 4] was “increases expression of TNNI3”, the “p21 protein, late treatment” value [2, 4] was “decreases expression of p21” and the “TNNTI3 by western analysis” value ([2]; Torin1 10, 50, 200 nM 4 days, BJRiPS, FIGS. 18F-18G) was “significant increase in TNNTI3”. For the same molecule, the “TNNI3 protein (western, densitometry)” value ([2]; Torin1 10, 50, 200 nM, 4 days, days 25-29, BJRiPS, FIG. 31) was “increased protein expression”, the “TNNT2 and TNNI3 protein expression by western analysis” value ([2]; Torin1 7 days, Gibco iPS-CMs, FIG. 2B) was “dose-dependent increase” and the “RNA expression of ryanodine receptor (RyR) and SCN5a” value ([3]; FIG. 32) was “trend toward increased RNA expression”. The “TNNI3 gene expression increase” value ([3]; Torin1 200 nM (highest dose tested), FIG. 30) was roughly 10 fold, the “RNA expression of TNNT2, TNNI3, MYH6, MYH7” value ([3]; Torin1 10, 50, 200 nM, days 11-18, FIG. 30) was “increased RNA expression of these proteins in a dose dependent manner” and the KCNJ2 expression [3, 5] was “trend toward a dose-dependent increase”. The “ion channel gene expression (KCNJ2, HCN4, SCN5a, RYR2, CACNA1c, SERCA2a)” value [3, 5] was “Ion channel gene expression increased”, the “NPPB (BNP) mRNA expression” value ([3]; Torin1 10, 50, 200 nM, days 11-18, FIG. 33) was “increased” and the “PGC1-alpha (PPARGC1a) mRNA expression” value ([3]; Torin1 10, 50, 200 nM, days 11-18, FIG. 35) was “increased expression”. For the same molecule, the REST/NRSF expression ([3]; dose-dependent, Torin1 10, 50, 200 nM, FIG. 34) was “increases gene expression for REST” and the “RNA expression of markers of maturation including TNNI3 and KCNJ2” value ([3]; preliminary data, after differentiation) was “increased RNA expression”.
